# Reference: patent publication US12290519B2, “Anti-inflammatory coupling compound drug, and preparation method therefor and use thereof” (COVAL BIOPHARMA (SHANGHAI) CO., LTD., priority 2021, dated 2025)
# Test: Hydrolysis rate / drug release rate of the compounds (release of JAK inhibitor, HPLC)
# Assay type: physicochemical
# Conditions: % release of JAK inhibitor from sample in acetonitrile/water=7/3 (v/v), 37° C. constant temperature shaker, sampled days 1-4, HPLC
# How it was run: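 Compounds (about 5 mg per 20 mL) were dissolved in acetonitrile/water 7/3 (v/v) and held sealed at 37° C in a shaker, sampled on days 0, 1, 2, 3 and 4. Released JAK inhibitor was quantified by HPLC peak area against a 0.0002–0.08 mg/mL reference curve and expressed as % release corrected for molecular weights.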
row,Release Rate (%/day),SMILES
1,0.013,"CCS(=O)(=O)N1CC(CC#N)(n2cc(-c3ncnc4c3ccn4COC(=O)c3ccccc3Nc3cccc(Cl)c3C)cn2)C1 [Ex. 81, Methyl (4-(1-(3-(cyanomethyl)-1-(ethylsulfonyl)azetidin-3-yl)-1H-pyrazol-4-yl)-7H-pyrrolo [2,3-d]pyrimidin-7-yl) 2-((3-chloro-2-methylphenyl)amino) benzoate]"
2,0.43,"Cc1cccc(Nc2ccccc2C(=O)n2ccc3c(-c4cnn([C@H](CC#N)C5CCCC5)c4)ncnc32)c1C [Ex. 82, (R)-3-cyclopentyl-3-(4-(7-(2-((2,3-dimethylphenyl)amino)benzoyl)-7H-pyrrolo [2,3-d]pyrimidin-4-yl)-1H-pyrazol-1-yl) propanenitrile]"
3,0.003,"CCS(=O)(=O)N1CC(CC#N)(n2cc(-c3ncnc4c3ccn4COC(=O)c3ccccc3Nc3cccc(C)c3C)cn2)C1 [Ex. 83, Methyl (4-(1-(3-(cyanomethyl)-1-(ethylsulfonyl)azetidin-3-yl)-1H-pyrazol-4-yl)-7H-pyrrolo [2,3-d]pyrimidin-7-yl) 2-((2,3-dimethylphenyl)amino) benzoate]"
4,0.06,"CCS(=O)(=O)N1CC(CC#N)(n2cc(-c3ncnc4c3ccn4COC(=O)Cc3ccc(NC(C)=O)cc3)cn2)C1 [Ex. 84, Methyl (4-(1-(3-(cyanomethyl)-1-(ethylsulfonyl)azetidin-3-yl)-1H-pyrazol-4-yl)-7H-pyrrolo [2,3-d]pyrimidin-7-yl) 2-(4-acetamidophenyl) acetate]"
5,0.61,"CCc1cccc2c3c([nH]c12)C(CC)(CC(=O)OCn1ccc2c(-c4cnn(C5(CC#N)CN(S(=O)(=O)CC)C5)c4)ncnc21)OCC3 (stereo not shown) [Ex. 85, Methyl (4-(1-(3-(cyanomethyl)-1-(ethylsulfonyl)azetidin-3-yl)-1H-pyrazol-4-yl)-7H-pyrrolo [2,3-d]pyrimidin-7-yl) 2-(1,8-diethyl-1,3,4,9-tetrahydropyrano [3,4-b]indol-1-yl) acetate]"
6,<0.01,"CC(C)Cc1ccc([C@H](C)C(=O)OCn2ccc3c(-c4cnn([C@H](CC#N)C5CCCC5)c4)ncnc32)cc1 [Ex. 86, (4-(1-((R)-2-cyano-1-cyclopentylethyl)-1H-pyrazol-4-yl)-7H-pyrrolo [2,3-d]pyrimidin-7-yl) methyl (S)-2-(4-isobutylphenyl) propanoate]"
7,0.01,"COc1ccc2cc([C@H](C)C(=O)OCn3ccc4c(-c5cnn([C@H](CC#N)C6CCCC6)c5)ncnc43)ccc2c1 [Ex. 87, (4-(1-((R)-2-cyano-1-cyclopentylethyl)-1H-pyrazol-4-yl)-7H-pyrrolo [2,3-d]pyrimidin-7-yl) methyl (S)-2-(6-methoxynaphthalen-2-yl) propanoate]"
8,0.17,"CNS(=O)(=O)C[C@H]1CC[C@H](N(C)c2ncnc3c2ccn3COC(=O)[C@@H](C)c2ccc(CC(C)C)cc2)CC1 [Ex. 88, (4-(Methyl ((trans)-4-((N-methylsulfamoyl)methyl)cyclohexyl)amino)-7H-pyrrolo [2,3-d]pyrimidin-7-yl) methyl (S)-2-(4-isobutylphenyl) propanoate]"
9,0.16,"CNS(=O)(=O)C[C@H]1CC[C@H](N(C)c2ncnc3c2ccn3COC(=O)[C@@H](C)c2ccc3cc(OC)ccc3c2)CC1 [Ex. 89, (4-(Methyl ((trans)-4-((N-methylsulfamoyl)methyl)cyclohexyl)amino)-7H-pyrrolo [2,3-d]pyrimidin-7-yl) methyl (S)-2-(6-methoxynaphthalen-2-yl) propanoate]"
10,0.35,"CNS(=O)(=O)C[C@H]1CC[C@H](N(C)c2ncnc3c2ccn3COC(=O)C(C)c2cccc(C(=O)c3ccccc3)c2)CC1 (stereo partly drawn) [Ex. 90, (4-(Methyl ((trans)-4-((N-methylsulfamoyl)methyl)cyclohexyl)amino)-7H-pyrrolo [2,3-d]pyrimidin-7-yl) methyl 2-(3-benzoylphenyl) propanoate]"
